Patent US20230234941A1, “Salts of Compound and Pharmaceutical Compositions Containing the Same” (Shenzhen Forward Pharmaceuticals Co., Limited., priority 2020, published 2023)
Read-outs that look alike come from different tables or passages of the source.

What was measured:
Assay type in all cases: physicochemical
[1] = Solid solubility test (2 h and 24 h); details: for solubility at 2 h / solubility at 24 h: thermodynamic from solid; for XRPD measured at 2 h: state of sample / solid fraction; for solubility at 24 h: read-out: Solubility measured at 24 h; for XRPD measured at 24 h: 24 h test, state of sample
Description: samples were weighed for each amorphous salt solid (equivalent to 20 mg of free base), and 10 mL of the following solvents were respectively added: 0.1N HCl solution (pH 1.0), 50 mM phosphate buffer (pH 4.5), FeSSIF-V1 (pH 5.0), FaSSIF-V1 (pH 6.5) and SGF (pH 2.0), […] The suspension was then centrifuged at 37° C., the supernatant was measured for solubility by HPLC, and the solid fraction was measured for XRPD. The target solubility was at least 2 mg (based on free base)/mL.

[2] = Chemical and physical stability of the salts at the end of the preparation
Source text: It is crucial for drug development whether the salts obtained as above have chemical and physical stability at the end of the preparation. The chemical and physical stability of the salts at the end of the preparation includes: […]

[3] = Solid storage stability test; details: for Original morphology / Original purity: original solid before storage; for chemical and physical stability after storage (summary): solid/25° C./60% RH/open/1 week and/or solid/60° C./closed container/1 week
Description: Each amorphous salt solid was weighed (two 2 mg samples were weighed for purity testing after solid storage stability study, and one 10 mg sample was weighed for XRPD testing after solid storage stability study) and placed in a glass vial. In a 25° C./60% RH solid storage stability test, the amorphous salt solid was placed in a 25° C./60% RH constant temperature and humidity chamber, and placed in the dark for 1 week (i.e. “solid/25° C./60% RH/open/1 week”), and in a 60° C. solid storage stability test, the amorphous salt solid was sealed in an oven at 60° C. and heated for 1 week in the dark (i.e. “solid/60° C./closed container/l week”). Then the sample was taken out for purity testing, crystal form detection and appearance observation, respectively.

[4] = FaSSIF-V1 (pH 6.5) (Test ES4, partly printed ES1)
[5] = FaSSIF-V1 (pH 6.5) (Test ES4, partly printed ES1), 37° C., based on free base
[6] = Test ES1: 0.1N HCl solution (pH 1.0)
[7] = Test ES1: 0.1N HCl solution (pH 1.0), 37° C., based on free base
[8] = Test ES2: 50 mM phosphate buffer (pH 4.5)
[9] = Test ES5: SGF (pH 2.0), 37° C., based on free base
[10] = Test BS1: solid/25° C./60% RH/open/1 week
[11] = solid/60° C./closed container/1 week (Test BS1)
[12] = Test ES2: 50 mM phosphate buffer (pH 4.5), 37° C., based on free base
[13] = Test ES3: FeSSIF-V1 (pH 5.0), 37° C., based on free base
[14] = listed as 1 eq. hydrochloride salt
[15] = listed as amorphous 1 eq. hydrochloride salt
[16] = listed as 2 eq. hydrochloride salt
[17] = listed as amorphous 2 eq. hydrochloride salt

Compound	pH measured at 2 h [1, 4]	Solubility measured at 2 h [1, 5] [mg/mL]	XRPD measured at 2 h [1, 4]	pH measured at 2 h [1, 6]	Solubility measured at 2 h [1, 7] [mg/mL]	XRPD measured at 2 h [1, 6]	pH measured at 2 h [1, 8]	XRPD measured at 2 h [1, 8]	pH measured at 2 h ([1]; Test ES3: FeSSIF-V1 (pH 5.0))	XRPD measured at 2 h ([1]; Test ES3: FeSSIF-V1 (pH 5.0))	pH measured at 2 h ([1]; Test ES5: SGF (pH 2.0))	Solubility measured at 2 h [1, 9] [mg/mL]	XRPD measured at 2 h ([1]; Test ES5: SGF (pH 2.0))	Purity [3, 10] [%]	Original morphology [3]	Original purity [3] [%]	Purity [3, 11] [%]	Solubility measured at 2 h [1, 12] [mg/mL]	Solubility measured at 2 h [1, 13] [mg/mL]	further results
C=CC(=O)Nc1cc(Nc2ncnc(-c3cn(C)c4ccccc34)n2)c(OC)cc1N(C)CCN(C)C [Example 1]	(6.8)	>2	clear solution	(0.8)	>2	clear solution	(4.6)	clear solution	(4.9)	clear solution	(2.4)	>2	clear solution	99.6	amorphous	99.9	99.9			solubility at 2 h ([1]; 50 mM phosphate buffer, 37 °C, pH 4.5, aqueous buffer, Test ES2: 50 mM phosphate buffer (pH 4.5), 37° C., based on free base, read-out: Solubility measured at 2 h): > 2 mg/mL; solubility at 24 h ([1]; FaSSIF-V1, 37 °C, pH 6.5, fassif, Test ES4: FaSSIF-V1 (pH 6.5)): > 2 mg/mL; solubility at 2 h ([1]; FeSSIF-V1, 37 °C, pH 5, fessif, Test ES3: FeSSIF-V1 (pH 5.0), 37° C., based on free base, read-out: Solubility measured at 2 h): > 2 mg/mL; solubility at 24 h ([1]; FeSSIF-V1, 37 °C, pH 5, fessif, Test ES3: FeSSIF-V1 (pH 5.0)): > 2 mg/mL; Solubility measured at 24 h ([1]; Test ES3: FeSSIF-V1 (pH 5.0)): >2 mg/mL; pH measured at 24 h ([1]; Test ES3: FeSSIF-V1 (pH 5.0)): (5.0); XRPD measured at 24 h ([1]; Test ES3: FeSSIF-V1 (pH 5.0)): clear solution; Solubility measured at 24 h ([1]; Test ES4: FaSSIF-V1 (pH 6.5)): >2 mg/mL; pH measured at 24 h ([1]; Test ES4: FaSSIF-V1 (pH 6.5)): (6.8); XRPD measured at 24 h ([1]; Test ES4: FaSSIF-V1 (pH 6.5)): clear solution; chemical and physical stability at the end of the preparation ([2]; listed as amorphous free base): chemically and physically stable; physical and chemical stability under storage (in words) ([3]; solid/25° C./60% RH/open/1 week, listed as amorphous free base): good physical and chemical stability; physical and chemical stability under storage (in words) ([3]; solid/60° C./closed container/1 week, listed as amorphous free base): transformed from amorphous to a moderate crystallinity
C=CC(=O)Nc1cc(Nc2ncnc(-c3cn(C)c4ccccc34)n2)c(OC)cc1N(C)CCN(C)C [Example 2]	(6.5)	>2	clear solution	(0.7)	>2	clear solution	(4.5)	clear solution	(4.8)	clear solution	(2.0)	>2	clear solution	99.9	amorphous	99.9	98.2	>2	>2	solubility at 2 h ([1]; 37 °C, 2 h solid solubility test, all five solvents, read-out: solubility in all solvents tested): > 2 mg/mL; chemical and physical stability at the end of the preparation [2, 14]: chemically and physically stable; chemical and physical stability at the end of the preparation [2, 15]: chemically and physically stable; chemical and physical stability after storage (summary) [3, 14]: chemically unstable; chemical and physical stability after storage (summary) [3, 15]: chemically unstable; physical and chemical stability under storage (in words) ([3]; solid/25° C./60% RH/open/1 week, listed as amorphous 1 eq. hydrochloride salt): good physical and chemical stability; decrease in purity ([3]; solid/60° C./closed container/1 week): about 2%
C=CC(=O)Nc1cc(Nc2ncnc(-c3cn(C)c4ccccc34)n2)c(OC)cc1N(C)CCN(C)C [Example 3]	(6.1)	>2	clear solution	(0.71	>2	clear solution	(4.2)	clear solution	(4.8)	clear solution	(1.8)	>2	clear solution	99.6	amorphous	99.9	99.6	>2	>2	chemical and physical stability at the end of the preparation [2, 16]: chemically and physically stable; chemical and physical stability at the end of the preparation [2, 17]: chemically and physically stable; chemical and physical stability after storage (summary) [3, 16]: physically unstable; chemical and physical stability after storage (summary) [3, 17]: physically unstable; physical and chemical stability under storage (in words) ([3]; solid/25° C./60% RH/open/1 week, listed as amorphous 2 eq. hydrochloride salt): slight color change and showed a certain hygroscopicity (partial agglomeration); physical and chemical stability under storage (in words) ([3]; solid/60° C./closed container/1 week, listed as amorphous 2 eq. hydrochloride salt): good physical and chemical stability
C=CC(=O)Nc1cc(Nc2ncnc(-c3cn(C)c4ccccc34)n2)c(OC)cc1N(C)CCN(C)C [Example 11]																				chemical and physical stability at the end of the preparation ([2]; listed as amorphous nitrate salt): at least chemically unstable; chemical and physical stability at the end of the preparation ([2]; listed as nitrate salt): chemically unstable
C=CC(=O)Nc1cc(Nc2ncnc(-c3cn(C)c4ccccc34)n2)c(OC)cc1N(C)CCN(C)C [Example 12]																				chemical and physical stability at the end of the preparation ([2]; listed as amorphous sulfate salt): chemically stable at the end of the preparation, but was physically unstable due to a certain hygroscopicity; chemical and physical stability at the end of the preparation ([2]; listed as sulfate salt): physically unstable
C=CC(=O)Nc1cc(Nc2ncnc(-c3cn(C)c4ccccc34)n2)c(OC)cc1N(C)CCN(C)C [Example 13]																				chemical and physical stability at the end of the preparation ([2]; listed as 2 eq. p-tosylate salt): physically unstable; chemical and physical stability at the end of the preparation ([2]; listed as amorphous 2 eq. p-tosylate salt): chemically stable and reasonable in terms of the base:acid stoichiometric ratio at the end of the preparation, but was physically unstable due to caking and fusion to a glassy state upon short exposure to environmental conditions
